Reference: ChEMBL document CHEMBL1128880, “Design and synthesis of heterocyclic analogues of mycophenolic acid as potential chemotherapeutic agents” (Bioorg Med Chem Lett, 1995)

Experiments:
L1210 = assay: In vitro antitumor activity against L1210 murine lymphocytic leukemia cells; assay type: functional, cell-based; conditions: Mus musculus
PSN1 = assay: In vitro antitumor activity against PSN-1 human pancreatic carcinoma cells; assay type: functional, cell-based
MCF7 = assay: In vitro antitumor activity against MCF-7 human breast adenocarcinoma cells; assay type: functional, cell-based
HT-29 = assay: In vitro antitumor activity against HT-29 human colon adenocarcinoma cells; assay type: functional, cell-based
A549 = assay: In vitro antitumor activity against A549 human NSCLC lung carcinoma cells; assay type: functional, cell-based
CCRF-CEM [1] = assay: Antitumor activity against HIV infected T4 lymphocytes (CEM cell line) at 0.4 uM concentration; assay type: functional, Homo sapiens
CCRF-CEM [2] = assay: Cytotoxic activity against HIV uninfected T4 lymphocytes (CEM cell line); assay type: functional, cell-based; conditions: Homo sapiens
CCRF-CEM [3] = assay: Cytotoxic activity against HIV infected T4 lymphocytes (CEM cell line); assay type: functional, cell-based; conditions: Homo sapiens

C/C(=C\Cc1nc(C(N)=O)cs1)CCC(=O)O
IC50 (L1210): > 100 µM
IC50 (PSN1): > 100 µM
IC50 (MCF7): > 100 µM
IC50 (HT-29): > 100 µM
IC50 (A549): > 100 µM

C/C(=C\Cn1cnc(C(N)=O)n1)CCC(=O)O
IC50 (L1210): > 100 µM
IC50 (PSN1): > 100 µM
IC50 (MCF7): > 100 µM
IC50 (HT-29): > 100 µM
IC50 (A549): > 100 µM

COc1c(C)c2c(c(O)c1C/C=C(\C)CCC(=O)O)C(=O)OC2 [MYCOPHENOLIC ACID]
Protection (CCRF-CEM [1]): 20%
IC50 (L1210): < 0.2 µM
IC50 (CCRF-CEM [2]): 0.9 µM
IC50 (PSN1): 0.7 µM
IC50 (MCF7): 0.5 µM
IC50 (HT-29): 0.9 µM
IC50 (A549): 0.4 µM

C/C(=C\Cn1cnc(C(=O)O)n1)CCC(=O)O
IC50 (L1210): > 100 µM
IC50 (PSN1): > 100 µM
IC50 (MCF7): > 100 µM
IC50 (HT-29): > 100 µM
IC50 (A549): > 100 µM

C/C(=C\Cc1ccc(C(N)=O)[nH]1)CCC(=O)O
IC50 (L1210): > 100 µM
IC50 (PSN1): > 100 µM
IC50 (MCF7): > 100 µM
IC50 (CCRF-CEM [3]): 730 µM
IC50 (HT-29): > 100 µM
IC50 (A549): > 100 µM

C/C(=C\Cn1cnc2c(O)ncnc21)CCC(=O)O
IC50 (L1210): > 100 µM
IC50 (PSN1): > 100 µM
IC50 (MCF7): > 100 µM
IC50 (HT-29): > 100 µM
IC50 (A549): > 100 µM

C/C(=C\Cn1cnc2c(Cl)ncnc21)CCC(=O)O
IC50 (L1210): > 100 µM
IC50 (PSN1): > 100 µM
IC50 (MCF7): > 100 µM
IC50 (HT-29): > 100 µM
IC50 (A549): > 100 µM

C/C(=C\Cc1cccc(C(N)=O)n1)CCC(=O)O
IC50 (L1210): > 100 µM
IC50 (PSN1): > 100 µM
IC50 (MCF7): > 100 µM
IC50 (HT-29): > 100 µM
IC50 (A549): > 100 µM

COC(=O)c1ccc(C/C=C(\C)CCC(=O)O)[nH]1
IC50 (L1210): > 100 µM
IC50 (PSN1): > 100 µM
IC50 (MCF7): > 100 µM
IC50 (CCRF-CEM [3]): 360 µM
IC50 (HT-29): > 100 µM
IC50 (A549): > 100 µM
